Measurements from paper PMC13252604, “First Generation Proteolysis Targeting Chimeras (PROTACs) for the Treatment of Progeria” (Advanced Science, 2026).

Experiments:
Stability in human serum = format: in vitro ADME
Description: TABLE 1 Pharmacokinetic parameters of PROTAC 2. | column: Stability (hours) ^b / h‐serum

[1] = system: HGADFN167 Lmna^G608G/G608G fibroblasts; experiment: Transmission electron microscopy of mitochondria; format: cell-based, human; conditions: HGADFN167, 5 µM, 20 days
Description: Supporting Figure S6. Basal respiration and electronic microscopy analysis of mitochondria in wild type and HGPS cells. (A) PROTAC 2 increases basal respiration (OCR, oxygen consumption rate) in human progeroid cells. Bar graphs show mean±sem of 2 independent experiments performed in duplicate. HGADFN167 LmnaG608G/G608G (progeroid) and HGADFN168 Lmna+/+ (wild type) fibroblasts, provided by the Progeria Research Foundation, were incubated with vehicle or 2 (5 µM) for 20 days. *, p<0.05 vs G608G cells, one-way ANOVA. […]
Mitochondria were evaluated for the integrity of the membrane, matrix and cristae, and were classified as mitochondria with normal morphology (black arrows) or damaged mitochondria (red arrows, with alterations in the membrane, presence of inclusions in the matrix and concentric cristae or “onion-like” mitochondria). […]
Cells were harvested by trypsin, centrifuged and washed with PBS. […] The mixture was then allowed to incubate for 30min at 37 °C in the dark and samples were finally analysed by FACScalibur (Becton Dickinson) flow cytometer […]
(§1) Cells were incubated for 1 h in 1% OsO4 at room temperature and then thoroughly washed with milliQ water. […] The samples were analysed and examined in the transmission electron microscope JEM 1010 at 80 […]

HGADFN167 cells = experiment: RNA-seq global transcriptomic analysis; format: cell-based, human; conditions: HGADFN167, 5 µM, 20 days
Description: To establish the broader impact of PROTAC 2 at the molecular level, we performed detailed gene expression and pathway‐centric enrichment analysis. HGADFN167 cells were treated with either vehicle or compound 2 (5 µM) for 20 days before RNA was extracted for RNA‐seq analysis (3 independent biological samples per condition). […] Remarkably, IL6 identification supports the qPCR results previously obtained (Figure 6C). […] In line with these findings, we identified several genes associated with endothelial and blood vessel development (CLDN11 and FOXS1), ECM organization (PTX3, SCUBE3, TINAGL1, and TNFRSF11B), and mesodermal and mesenchymal regulation (MEST, MEDAG, and STC2).
Cells were harvested by trypsin, centrifuged and washed with PBS. Cells pellets were added with 70% (vol/vol) ice-cold ethanol. The mixture was incubated for 15min at 4 °C, centrifuged 2500 rpm, washed with PBS and then re-suspended in 500ul staining buffer (25ug/mL propidium iodide and 100μg/ml DNAse-free RNAse both from Sigma-Aldrich in PBS). The mixture was then allowed to incubate for 30min at 37 °C in the dark and samples were finally analysed by FACScalibur (Becton Dickinson) flow cytometer
11. Transmission electron microscopy.
Cells previously collected in 1.5 mL tube, were washed with PBS and fixed with 2.5% glutaraldehyde and 4% paraformaldehyde in Milloning´s phosphate buffer (41.5 mL 2.26% NaH2PO4·H2O and 8.5 mL 2.52% NaOH both in milliQ water, pH 7.2-7.4) for 4h at 4 °C. […]
as §1
Total RNA of HGPS fibroblasts (HGADFN167) and UCM-18142-treated HGPS fibroblasts were extracted for RNA sequencing. The RNA concentration and integrity were assessed using the Tape Station 4150 system (Agilent). […] All raw reads were mapped to the human genome (Grch38) using the software HISAT2. HTSeq was used to calculate Reads Count and transcripts per kilobase per million reads were computed. […]

CC1(C)Oc2cc3oc(=O)ccc3cc2C[C@@H]1OC(=O)CCCCCNc1cccc2c1C(=O)N(C1CCC(=O)NC1=O)C2=O (some centres unmarked) [compound 2]
Stability (hours) h‐serum (Stability in human serum): >24 h
number of healthy mitochondria (electron microscopy) [1]: enhances
downregulated genes (HGADFN167 cells; adjusted p<0.01, log2 FC <−1.0): 205
upregulated genes (HGADFN167 cells; adjusted p<0.01, log2 FC >1.0): 83
differentially expressed genes, treated vs non‐treated (HGADFN167 cells; adjusted p<0.01, log2 FC >1.0 or <−1.0): 288
